Results: patent US10322110B2, “Imidazole-based antimicrobial agents” (priority 2014, dated 2019)
Converted amounts (≈) assume the structure as drawn. Read-outs that look alike come from different tables or passages of the source.

Key:
Type in all cases: cell-based
[1] = system: Bacillus subtilis (Marburg strain, ATCC6051); assay: microbe, parasite or virus in culture; settings: ATCC6051, read-out: Antibacterial activity BS (Bacillus substilis)
[2] = system: Staphylococcus aureus MRSA (COL); assay: broth microdilution MIC assay, Staphylococcus aureus MRSA (COL); settings: Staphylococcus aureus, MRSA
[3] = system: Staphylococcus epidermidis (PCI 1200, ATCC12228); assay: broth microdilution MIC assay, Staphylococcus epidermidis; settings: ATCC12228, read-out: Antibacterial activity SE (Staphylococcus epidermidis)
[4] = system: Human hepatocytes (HepaRG cells); assay: human cytotoxicity assay in vitro (CellTiter-Glo), hepatocytes; settings: cytotoxicity class
[5] = system: Staphylococcus aureus MSSA (Newman); assay: broth microdilution MIC assay, Staphylococcus aureus MSSA (Newman); settings: Staphylococcus aureus
[6] = system: Escherichia coli TolC mutant strain ΔtoIC (K12 b3035 TolC; JW5503); settings: MIC activity class

## CN(C)Cc1[nH]c(-c2ccc(-c3ccccc3C(F)(F)F)o2)nc1-c1ccccc1 [Compound 70]
[1]
  MIC: 20 to 50 µg/mL (≈ 48.6 to 122 µM)
[2]; read-out: Antibacterial activity MRSA (Staphylococcus aureus MRSA)
  MIC: 20 to 50 µg/mL (≈ 48.6 to 122 µM)
[2]; MIC100 class score, broth microdilution, 24 h, read-out: Antibacterial activity Staphylococcus aureus (MRSA)
  MIC: 20 to 50 µg/mL (≈ 48.6 to 122 µM)
[3]
  MIC: 11 to 201 µg/mL (≈ 26.7 to 489 µM)
[4]
  cytotoxicity cell line H (hepatocytes): 3
[5]; 24 h, read-out: Antibacterial activity Staphylococcus aureus (MSSA)
  MIC: 20 to 50 µg/mL (≈ 48.6 to 122 µM)
[5]; read-out: Antibacterial activity MSSA (Staphylococcus aureus MSSA)
  MIC: 20 to 50 µg/mL (≈ 48.6 to 122 µM)
[6]
  Antibacterial activity EC Δ (Escherichia coli ΔtoIC): 3 (MIC100 of 3-10 μg/ml)
